{"source": "ChEMBL document CHEMBL1148842", "about": "“Discovery of novel, non-acidic 1,5-biaryl pyrrole EP1 receptor antagonists” (Bioorg Med Chem Lett, 2007)", "target": "T1, Prostaglandin E2 receptor EP1 subtype (Homo sapiens, UniProt P34995)", "T1 sequence (P34995 whole entry)": "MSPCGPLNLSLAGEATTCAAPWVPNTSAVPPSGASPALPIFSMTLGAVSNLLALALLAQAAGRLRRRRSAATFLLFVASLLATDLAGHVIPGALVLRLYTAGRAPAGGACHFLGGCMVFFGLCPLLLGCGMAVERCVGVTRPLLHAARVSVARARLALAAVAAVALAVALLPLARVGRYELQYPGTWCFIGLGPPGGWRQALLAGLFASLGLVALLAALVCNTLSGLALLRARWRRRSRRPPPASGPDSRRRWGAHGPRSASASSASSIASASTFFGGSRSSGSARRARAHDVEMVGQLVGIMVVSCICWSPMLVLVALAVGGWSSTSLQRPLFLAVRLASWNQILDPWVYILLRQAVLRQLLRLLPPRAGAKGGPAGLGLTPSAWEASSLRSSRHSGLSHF", "test": "Displacement of [3H]PGE2 from human recombinant EP1 receptor expressed in CHO cells", "type": "cell-based", "data": [{"smiles": "Cc1ccc(-c2cc(Cl)ccc2OCc2ccccc2)n1-c1cccc(C(=O)N[C@H](C)c2ccccc2)c1", "values": [{"measurement": "IC50", "result": 39.8, "unit": "nM"}]}, {"smiles": "Cc1ccc(-c2cc(Br)ccc2OCc2ccccc2)n1-c1cccc(S(C)(=O)=O)c1", "values": [{"measurement": "IC50", "result": 200, "unit": "nM"}]}, {"smiles": "Cc1ccc(-c2cc(Cl)ccc2OCc2ccccc2)n1-c1ccc(S(=O)(=O)NC(=O)c2ccccc2)cc1", "values": [{"measurement": "IC50", "result": 7.94, "unit": "nM"}]}, {"smiles": "CCN(CC)C(=O)c1ccc(-n2c(C)ccc2-c2cc(Br)ccc2OCc2ccc(F)cc2F)cc1", "values": [{"measurement": "IC50", "result": 50.1, "unit": "nM"}]}, {"smiles": "Cc1ccc(-c2ccccc2OCc2ccccc2)n1-c1cccc(S(C)(=O)=O)c1", "values": [{"measurement": "IC50", "result": "> 1000", "unit": "nM"}]}, {"smiles": "Cc1ccc(-c2cc(Br)ccc2OCc2ccc(F)cc2F)n1-c1ccc2c(c1)C(=O)NC2=O", "values": [{"measurement": "IC50", "result": 158, "unit": "nM"}]}, {"smiles": "Cc1ccc(-c2ccccc2OCc2ccc(F)cc2F)n1-c1ccc2nn[nH]c2c1", "values": [{"measurement": "IC50", "result": 631, "unit": "nM"}]}, {"smiles": "Cc1ccc(-c2cc(Cl)ccc2OCc2ccccc2)n1-c1ccc(S(N)(=O)=O)cc1", "values": [{"measurement": "IC50", "result": 20, "unit": "nM"}]}, {"smiles": "Cc1ccc(-c2cc(Cl)ccc2OCc2ccccc2)n1-c1cccc(C(=O)NCc2ccccc2)c1", "values": [{"measurement": "IC50", "result": 25.1, "unit": "nM"}]}, {"smiles": "Cc1ccc(-c2cc(Cl)ccc2OCc2ccccc2)n1-c1cccc(C(N)=O)c1", "values": [{"measurement": "IC50", "result": 63.1, "unit": "nM"}]}, {"smiles": "Cc1ccc(-c2cc(Cl)ccc2OCc2ccccc2)n1-c1ccc(C(=O)NCc2ccccc2)cc1", "values": [{"measurement": "IC50", "result": 25.1, "unit": "nM"}]}, {"smiles": "Cc1ccc(-c2cc(Cl)ccc2OCc2ccccc2)n1-c1cccc(C(=O)NCc2ccccn2)c1", "values": [{"measurement": "IC50", "result": 50.1, "unit": "nM"}]}, {"smiles": "Cc1ccc(-c2cc(Cl)ccc2OCc2ccccc2)n1-c1cccc(C(=O)N[C@@H](C)c2ccccc2)c1", "values": [{"measurement": "IC50", "result": 316, "unit": "nM"}]}, {"smiles": "Cc1ccc(-c2cc(Cl)ccc2OCc2ccccc2)n1-c1ccc(-n2cncn2)cc1", "values": [{"measurement": "IC50", "result": 501, "unit": "nM"}]}, {"smiles": "CNC(=O)c1cccc(-n2c(C)ccc2-c2cc(Br)ccc2OCc2ccc(F)cc2F)c1", "values": [{"measurement": "IC50", "result": 20, "unit": "nM"}]}, {"smiles": "Cc1ccc(-c2cc(Br)ccc2OCc2ccccc2)n1-c1ccc(S(C)(=O)=O)cc1", "values": [{"measurement": "IC50", "result": 31.6, "unit": "nM"}]}, {"smiles": "Cc1ccc(-c2cc(Cl)ccc2OCc2ccccc2)n1-c1cccc(C(=O)NS(=O)(=O)c2ccccc2)c1", "values": [{"measurement": "IC50", "result": 2.51, "unit": "nM"}]}, {"smiles": "Cc1ccc(-c2cc(Br)ccc2OCc2ccc(F)cc2F)n1-c1ccc(C(=O)NC(C)(C)C)cc1", "values": [{"measurement": "IC50", "result": 15.8, "unit": "nM"}]}, {"smiles": "Cc1ccc(-c2cc(Cl)ccc2OCc2ccccc2)n1-c1cccc(S(C)(=O)=O)c1", "values": [{"measurement": "IC50", "result": 126, "unit": "nM"}]}, {"smiles": "Cc1ccc(-c2cc(Br)ccc2OCc2ccc(F)cc2F)n1-c1ccc(C(=O)N(C)C)cc1", "values": [{"measurement": "IC50", "result": 15.8, "unit": "nM"}]}, {"smiles": "CC(=O)Nc1cccc(-n2c(C)ccc2-c2cc(Cl)ccc2OCc2ccccc2)c1", "values": [{"measurement": "IC50", "result": 63.1, "unit": "nM"}]}, {"smiles": "Cc1ccc(-c2cc(Br)ccc2OCc2ccc(F)cc2F)n1-c1cccc(-c2cccnc2)c1", "values": [{"measurement": "IC50", "result": 126, "unit": "nM"}]}, {"smiles": "Cc1cc(=O)[nH]c2cc(-n3c(C)ccc3-c3cc(Cl)ccc3OCc3ccccc3)ccc12", "values": [{"measurement": "IC50", "result": 63.1, "unit": "nM"}]}, {"smiles": "Cc1ccc(-c2cc(Cl)ccc2OCc2ccccc2)n1-c1ccc(C(=O)NCc2cccnc2)cc1", "values": [{"measurement": "IC50", "result": 12.6, "unit": "nM"}]}, {"smiles": "CNC(=O)c1ccc(-n2c(C)ccc2-c2cc(Br)ccc2OCc2ccc(F)cc2F)cc1", "values": [{"measurement": "IC50", "result": 3.98, "unit": "nM"}]}, {"smiles": "Cc1ccc(-c2cc(Cl)ccc2OCc2ccccc2)n1-c1cccc(C(=O)NCc2cccnc2)c1", "values": [{"measurement": "IC50", "result": 63.1, "unit": "nM"}]}, {"smiles": "Cc1ccc(-c2ccccc2OCc2ccccc2)n1-c1cccc(C(=O)NS(=O)(=O)c2ccccc2)c1", "values": [{"measurement": "IC50", "result": 2.51, "unit": "nM"}]}, {"smiles": "Cc1ccc(-c2cc(Cl)ccc2OCc2ccccc2)n1-c1ccc(C(=O)NCc2ccccn2)cc1", "values": [{"measurement": "IC50", "result": 2.51, "unit": "nM"}]}, {"smiles": "Cc1ccc(-c2cc(Br)ccc2OCc2ccc(F)cc2F)n1-c1ccc(-c2cnc[nH]2)cc1", "values": [{"measurement": "IC50", "result": 39.8, "unit": "nM"}]}, {"smiles": "Cc1nc(-c2cccc(-n3c(C)ccc3-c3cc(Br)ccc3OCc3ccc(F)cc3F)c2)no1", "values": [{"measurement": "IC50", "result": 200, "unit": "nM"}]}, {"smiles": "Cc1ccc(-c2cc(Cl)ccc2OCc2ccccc2)n1-c1ccc2[nH]ncc2c1", "values": [{"measurement": "IC50", "result": 39.8, "unit": "nM"}]}, {"smiles": "Cc1noc(C)c1S(=O)(=O)NC(=O)c1cccc(-n2c(C)ccc2-c2ccccc2OCc2ccccc2)c1", "values": [{"measurement": "IC50", "result": 5.01, "unit": "nM"}]}, {"smiles": "Cc1ccc(-c2cc(Cl)ccc2OCc2ccccc2)n1-c1cccc(S(=O)(=O)NC(=O)c2ccccc2)c1", "values": [{"measurement": "IC50", "result": 79.4, "unit": "nM"}]}, {"smiles": "Cc1ccc(-c2cc(Br)ccc2OCc2ccc(F)cc2F)n1-c1ccc(C(N)=O)cc1", "values": [{"measurement": "IC50", "result": 7.94, "unit": "nM"}]}, {"smiles": "Cc1ccc(-c2cc(Cl)ccc2OCc2ccccc2)n1-c1ccc(S(C)(=O)=O)cc1", "values": [{"measurement": "IC50", "result": 20, "unit": "nM"}]}, {"smiles": "Cc1ccc(-c2cc(Cl)ccc2OCc2ccccc2)n1-c1ccc(C(=O)NCc2ccncc2)cc1", "values": [{"measurement": "IC50", "result": 63.1, "unit": "nM"}]}, {"smiles": "Cc1ccc(-c2cc(Br)ccc2OCc2ccc(F)cc2F)n1-c1cccc(C(=O)NS(C)(=O)=O)c1", "values": [{"measurement": "IC50", "result": 3.98, "unit": "nM"}]}, {"smiles": "Cc1ccc(-c2cc(Cl)ccc2OCc2ccccc2)n1-c1ccc(C(=O)N[C@@H](C)c2ccccc2)cc1", "values": [{"measurement": "IC50", "result": 5.01, "unit": "nM"}]}, {"smiles": "Cc1ccc(-c2cc(Br)ccc2OCc2ccc(F)cc2F)n1-c1cccc(-c2nc3ccccc3[nH]2)c1", "values": [{"measurement": "IC50", "result": 63.1, "unit": "nM"}]}, {"smiles": "Cc1nnc(-c2cccc(-n3c(C)ccc3-c3cc(Br)ccc3OCc3ccc(F)cc3F)c2)o1", "values": [{"measurement": "IC50", "result": 39.8, "unit": "nM"}]}, {"smiles": "Cc1ccc(-c2cc(Br)ccc2OCc2ccc(F)cc2F)n1-c1cccc(-c2ccccn2)c1", "values": [{"measurement": "IC50", "result": 251, "unit": "nM"}]}, {"smiles": "Cc1ccc(-c2cc(Cl)ccc2OCc2ccccc2)n1-c1cccc(C(=O)NCc2ccncc2)c1", "values": [{"measurement": "IC50", "result": 63.1, "unit": "nM"}]}, {"smiles": "Cc1ccc(-c2cc(Br)ccc2OCc2ccc(F)cc2F)n1-c1cccc(C(=O)N(C)C)c1", "values": [{"measurement": "IC50", "result": 10, "unit": "nM"}]}, {"smiles": "Cc1ccc(-c2cc(Cl)ccc2OCc2ccccc2)n1-c1ccc(C(=O)N[C@H](C)c2ccccc2)cc1", "values": [{"measurement": "IC50", "result": 1.58, "unit": "nM"}]}, {"smiles": "Cc1ccc(-c2ccccc2OCc2ccccc2)n1-c1ccc(S(C)(=O)=O)cc1", "values": [{"measurement": "IC50", "result": 501, "unit": "nM"}]}, {"smiles": "Cc1ccc(-c2cc(Cl)ccc2OCc2ccccc2)n1-c1ccc2cn[nH]c2c1", "values": [{"measurement": "IC50", "result": 39.8, "unit": "nM"}]}, {"smiles": "Cc1ccc(-c2ccccc2OCc2ccc(F)cc2F)n1-c1cccc(C(N)=O)c1", "values": [{"measurement": "IC50", "result": 501, "unit": "nM"}]}, {"smiles": "Cc1ccc(-c2cc(Cl)ccc2OCc2ccccc2)n1-c1ccc2nn[nH]c2c1", "values": [{"measurement": "IC50", "result": 25.1, "unit": "nM"}]}, {"smiles": "Cc1ccc(-c2cc(Br)ccc2OCc2ccc(F)cc2F)n1-c1cccc(C(=O)Nc2ccccc2)c1", "values": [{"measurement": "IC50", "result": 501, "unit": "nM"}]}, {"smiles": "Cc1ccc(-c2cc(Br)ccc2OCc2ccc(F)cc2F)n1-c1cccc(-c2ncccn2)c1", "values": [{"measurement": "IC50", "result": 126, "unit": "nM"}]}, {"smiles": "Cc1ccc(-c2cc(Br)ccc2OCc2ccc(F)cc2F)n1-c1cccc(C(O)(C(F)(F)F)C(F)(F)F)c1", "values": [{"measurement": "IC50", "result": 25.1, "unit": "nM"}]}]}
